This is an account of results in patent US20210355106A1, “NEW AMINO-PYRIMIDONYL-PIPERIDINYL DERIVATIVES, A PROCESS FOR THEIR PREPARATION AND PHARMACEUTICAL COMPOSITIONS CONTAINING THEM” (LES LABORATOIRES SERVIER, priority 2018, published 2021).

Counter-ions that a name gives are not always drawn.

The target in the experiment is T1, USP7 (Homo sapiens, UniProt Q93009, C315A).
T1 construct: 0.25 nM His-His-USP7 (aa208-560, |C315A|) was incubated with compound; His-His (N)
T1 sequence (Q93009 208-560 C315A): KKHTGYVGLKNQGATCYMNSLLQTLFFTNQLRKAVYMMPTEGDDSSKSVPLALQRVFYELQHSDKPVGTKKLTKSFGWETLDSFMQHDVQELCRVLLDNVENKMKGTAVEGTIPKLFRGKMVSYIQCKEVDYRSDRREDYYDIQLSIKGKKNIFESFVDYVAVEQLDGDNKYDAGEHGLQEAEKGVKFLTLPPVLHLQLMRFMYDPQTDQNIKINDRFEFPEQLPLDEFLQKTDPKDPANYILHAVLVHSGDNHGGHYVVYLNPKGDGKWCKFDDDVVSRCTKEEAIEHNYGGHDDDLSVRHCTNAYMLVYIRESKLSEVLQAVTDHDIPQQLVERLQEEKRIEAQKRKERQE
Nature of the experiment: Inhibition of USP7 by Fluorescence Intensity (FLINT) readings, Ubiquitin-Rhodamine-110 substrate. As to conditions: 0.25 nM His-His-USP7 (aa208-560), 60 minutes at 30° C. preincubation; Ki determined from IC50 according to Cer et al. Format: biochemical. On the procedure:
USP7 activity was measured using Rhodamine-110 c-terminal labelled Ubiquitin as a substrate (UbiQ Bio), Incubation with USP7 results in the release of Rhodamine-110 leading to an increase in fluorescence which can be used in the continuous measurement of USP7 activity.
The USP7 reactions were performed in a 50 μL volume, in 384 well black solid low binding plates (Corning #3575). The reaction buffer consisted of 100 mM Bicine pH 8.0, 0.01% TritonX 100, 1 mM TCEP, and 10% DMSO.
0.25 nM His-His-USP7 (aa208-560, |C315A|) was incubated with compound (final concentration 10% DMSO) for 60 minutes at 30° C. The reaction was then initiated by the addition of 50) nM Ubiquitin-Rhodamine-110 substrate or 4 μM Ubiquitin-Rhodamine-110 substrate and the plate read every 3 minutes for 21 minutes to measure the release of Rhodamine-110. Fluorescence Intensity (FLINT) readings were measured using a Biomek Neo plate reader (Ex.485 nm, Em.535 nm).
The inhibition of increasing doses of compound was expressed as a percentage reduction in kinetic rate compared to the kinetic rates established between ‘DMSO only’ and ‘total inhibition’ controls (no USP7). The inhibitory concentrations that gave a 50% reduction in kinetic rate (IC50) were determined, from 11-point dose response curves, in XL-Fit using a 4-Parameter Logistic Model 205 (Sigmoidal Dose-Response Model). The K, values were determined from the IC50 values according to Cer et al. Nucleic Acids Res. 2009, July 1; 37 (WebServer issue): W441-W445.
A word on the Ki: it is the dissociation constant of the complex between target and ligand, obtained from inhibition or displacement. A lower Ki goes with higher affinity. Molecule `CC(C)(C)OC(=O)N1CC[C@@H](C(=O)N2CC[C@](O)(Cn3cnc(Oc4ccc(F)cc4)c(N)c3=O)C(F)(F)C2)[C@H](c2ccccc2)C1` [Example 10] gave an inhibitory constant (Ki) of 104 nM.

The molecule `Nc1c(Oc2ccc(Cl)cc2)ncn(CC2(O)CCN(C(=O)[C@@H]3CCNC[C@H]3c3ccccc3)CC2)c1=O` [Example 14, 5-amino-6-(4-chlorophenoxy)-3-[[4-hydroxy-1-[(3R,4R)-3-phenylpiperidine-4-carbonyl]-4-piperidyl]methyl]pyrimidin-4-one hydrochloride] yielded a Ki of 115 nM.

For the molecule `COc1cc(Cl)cc(Oc2ncn(CC3(O)CCN(C(=O)[C@@H]4CCNC[C@H]4c4ccccc4)CC3)c(=O)c2N)c1` [Example 15], the affinity corresponds to a Ki of 286 nM.

Molecule `Nc1c(Oc2ccc(Cl)c(F)c2)ncn(CC2(O)CCN(C(=O)[C@@H]3CCNC[C@H]3c3ccccc3)CC2)c1=O` [Example 16] showed a Ki of 232 nM.

On to `COc1cc(Oc2ncn(CC3(O)CCN(C(=O)[C@@H]4CCNC[C@H]4c4ccccc4)CC3)c(=O)c2N)ccc1F` [Example 17, 5-amino-6-(4-fluoro-3-methoxy-phenoxy)-3-[[4-hydroxy-1-(3R,4R)-3-phenylpiperidine-4-carbonyl]-4-piperidyl]methyl]pyrimidin-4-one hydrochloride], for which affinity was put at a Ki of 116 nM.

In the case of `Nc1c(Oc2cccc(C(F)(F)F)c2)ncn(CC2(O)CCN(C(=O)[C@@H]3CCNC[C@H]3c3ccccc3)CC2)c1=O` [Example 18, 5-amino-3-[[4-hydroxy-1-[(3R,4R)-3-phenylpiperidine-4-carbonyl]-4-piperidyl]methyl]-6-[3-(trifluoromethyl)phenoxy]pyrimidin-4-one hydrochloride], the affinity corresponds to a Ki of 329 nM.

As for `Nc1c(Oc2cccc(OC(F)(F)F)c2)ncn(CC2(O)CCN(C(=O)[C@@H]3CCNC[C@H]3c3ccccc3)CC2)c1=O` [Example 19, 5-amino-3-[[4-hydroxy-1-[(3R,4R)-3-phenylpiperidine-4-carbonyl]-4-piperidyl]methyl]-6-[3-(trifluoromethoxy)phenoxy]pyrimidin-4-one hydrochloride], the Ki amounted to 344 nM.

`Nc1c(Oc2ccccc2)ncn(CC2(O)CCN(C(=O)[C@@H]3CCNC[C@H]3c3ccccc3)CC2)c1=O` [Example 20, 5-amino-3-[4-hydroxy-1-[(3R,4R)N-phenylpiperidine-4-carbonyl-4-piperidyl]methyl]-6-phenoxy-pyrimidin-4-one] displayed an inhibition constant Ki of 112 nM.

`Nc1c(Oc2ccc(F)cc2)ncn(CC2(O)CCN(C(=O)[C@@H]3CCNC[C@H]3c3ccccc3)CC2)c1=O` [Example 21, 5-amino-6-(4-fluorophenoxy)-3-[[4-hydroxy-1-[(3R,4R)-3-phenylpiperidine-4-carbonyl]-4-piperidyl]methyl]pyrimidin-4-one] had a Ki of 103 nM.

The molecule `Cc1ccc(-c2cccc(C(=O)N3CC[C@@H](C(=O)N4CCC(O)(Cn5cnc(Oc6ccc(F)cc6)c(N)c5=O)CC4)[C@H](c4ccccc4)C3)c2)cn1` [Example 32] returned a Ki of 4.6 nM.

In the case of `Nc1c(Oc2ccc(F)cc2)ncn(CC2(O)CCN(C(=O)[C@@H]3CCN(C(=O)c4ccc5nc[nH]c(=O)c5c4)C[C@H]3c3ccccc3)CC2)c1=O` [Example 57, 6-[(3R,4R)-4-(4-t[5-amino-4-(4-fluorophenoxy)-6-oxopyrimidin-[(6N)-yl]methyl}-4-hydroxypiperidine-1-carbonyl)-3-phenylpiperidine-1-carbonyl]quinazolin-4(3n)-one], the affinity corresponds to a Ki of 5.1 nM.

Consider `Nc1c(Oc2ccc(F)cc2)ncn(CC2(O)CCN(C(=O)[C@@H]3CCN(C(=O)c4ccc5c(c4)C(=O)C(=O)N5)C[C@H]3c3ccccc3)CC2)c1=O` [Example 58, 5-[(3R,4R)-4-[4-[[5-amino-4-(4-fluorophenoxy)-6-oxo-pyrimidin-1-yl]methyl]-4-hydroxy-piperidine-1-carbonyl]-3-phenyl-piperidine-1-carbonyl]indoline-2,3-dione], for which the Ki came out at 6.51 nM.

Take `CC(C)(O)CN1CC[C@@H](C(=O)N2CCC(O)(Cn3cnc(Oc4ccc(F)cc4)c(N)c3=O)CC2)[C@H](c2ccccc2)C1` [Example 73, 5-amino-6-(4-fluorophenoxy)-3-[[4-hydroxy-1-[(3R,4R)-1-(2-hydroxy-2-methyl-propyl)-3-phenyl-piperidine-4-carbonyl]-4-piperidyl]methyl]pyrimidin-4-one]: the inhibition constant Ki was determined as 326 nM.

Turning to `Nc1c(Oc2ccc(F)cc2)ncn(CC2(O)CCN(C(=O)[C@@H]3CCN(C(=O)NCc4ccccc4)C[C@H]3c3ccccc3)CC2)c1=O` [Example 79, (3R,4R)-4-[4-[[5-amino-4-(4-fluorophenoxy)-6-oxo-pyrimidin-1-yl]methyl]-4-hydroxy-piperidine-1-carbonyl]-N-benzyl-3-phenyl-piperidine-1-carboxamide], the affinity, expressed as Ki, was 121 nM.

As for `COc1ccc(NC(=O)N2CC[C@@H](C(=O)N3CCC(O)(Cn4cnc(Oc5ccc(F)cc5)c(N)c4=O)CC3)[C@H](c3ccccc3)C2)c(OC)c1` [Example 82], affinity was put at a Ki of 16 nM.

In turn, `Nc1c(Oc2ccc(F)cc2)ncn(CC2(O)CCN(C(=O)[C@@H]3CCN(C(=O)Nc4nc(C(F)(F)F)cs4)C[C@H]3c3ccccc3)CC2)c1=O` [Example 88, (3R,4R)-4-[4-[[5-amino-4-(4-fluorophenoxy)-6-oxo-pyrimidin-1-yl]methyl]-4-hydroxy-piperidine-1-carbonyl]-3-phenyl-N-[4-(trifluoromethyl)thiazol-2-yl]piperidine-1-carboxamide] showed an inhibitory constant (Ki) of 187 nM.

Consider `Nc1c(Oc2ccc(F)cc2)ncn(CC2(O)CCN(C(=O)[C@@H]3CCN(C(=O)NCC(F)(F)F)C[C@H]3c3ccccc3)CC2)c1=O` [Example 90], for which the Ki came to 345 nM.

With `Nc1c(Oc2ccc(F)cc2)ncn(CC2(O)CCN(C(=O)[C@@H]3CCN(C4(c5ccc(F)cc5)COC4)C[C@H]3c3ccccc3)CC2)c1=O` [Example 110, 5-amino-6-(4-fluorophenoxy)-3-[[1-[(3R,4R)-1-[3-(4-fluorophenyl)oxetan-3-yl]-3-phenyl-piperidine-4carbonyl]-4-hydroxy-4-piperidyl]methyl]pyrimidin-4-one], the Ki was found to be 182 nM.

Consider `CC1(N2CC[C@@H](C(=O)N3CCC(O)(Cn4cnc(Oc5ccc(F)cc5)c(N)c4=O)CC3)[C@H](c3ccccc3)C2)COC1` [Example 111, 5-amino-6-(4-fluorophenoxy)-3-[[4-hydroxy-1-[(3R,4R)-1-(3-methyloxetan-3-yl)-3-phenyl-piperidine-4-carbonyl]-4-piperidyl]methyl]pyrimidin-4-one], for which affinity was put at a Ki of 312 nM.

Turning to `CC(C)C1(N2CC[C@@H](C(=O)N3CCC(O)(Cn4cnc(Oc5ccc(F)cc5)c(N)c4=O)CC3)[C@H](c3ccccc3)C2)COC1` [Example 112, 5-amino-6-(4-fluorophenoxy)-3-[[4-hydroxy-1-[(3R,4R)-1-(3-isopropyloxetan-3-yl)-3-phenyl-piperidine-4-carbonyl]-4-piperidyl]methyl]pyrimidin-4-one], the Ki was found to be 203 nM.

Turning to `CC1(N2CC[C@@H](C(=O)N3CCC(O)(Cn4cnc(Oc5ccccc5)c(N)c4=O)CC3)[C@H](c3ccccc3)C2)COC1` [Example 113, 5-amino-3-[[4-hydroxy-1-[(3R,4R)-1-(3-methyloxetan-3-yl)-3-phenyl-piperidine-4-carbonyl]-4-piperidyl]methyl]-6-phenoxy-pyrimidin-4-one], the Ki worked out at 30.6 nM.

In turn, `Nc1c(Oc2ccccc2)ncn(CC2(O)CCN(C(=O)[C@@H]3CCN(C4(c5ccc(F)cc5)COC4)C[C@H]3c3ccccc3)CC2)c1=O` [Example 115] returned an inhibitory constant (Ki) of 418 nM.

Regarding `Nc1c(Oc2ccc(F)cc2)ncn(CC2(O)CCN(C(=O)[C@@H]3CCN(C(=O)c4cccc(C5CCCNC5)c4)C[C@H]3c3ccccc3)CC2)c1=O` (stereo partly drawn) [Example 116, 5-amino-6-(4-fluorophenoxy)-3-[(4-hydroxy-1-((3R,4R)-3-phenyl-1-[3-(piperidin-3-yl)benzoyl]piperidine-4-carbonyl}piperidin-4-yl)methyl]pyrimidin-4(3H)-one], affinity was put at a Ki of 8 nM.

In turn, `Nc1c(Oc2ccc(F)cc2)ncn(CC2(O)CCN(C(=O)[C@@H]3CCN(S(=O)(=O)c4ccc(-c5cccs5)s4)C[C@H]3c3ccccc3)CC2)c1=O` [Example 118, 5-amino-6-(4-fluorophenoxy)-3-[[4-hydroxy-1-[(3R,4R)-3-phenyl-[[5-(2thienyl)-2-thienyl]sulfonyl]piperidine-4-carbonyl]-4-piperidyl]methyl]pyrimidin-4-one] came in with a Ki of 123 nM.

`COc1cc(Oc2ncnc(OC[C@@]3(O)CCN(C(=O)[C@@H]4CCN(C(=O)OC(C)(C)C)C[C@H]4c4ccccc4)CC3(F)F)c2N)ccc1F` [Example 135] registered a Ki of 206 nM.

Regarding `CC(C)(C)OC(=O)N1CC[C@@H](C(=O)N2CCC(O)(Cn3cnc(Oc4cccnc4)c(N)c3=O)CC2)[C@H](c2ccccc2)C1` [Example 137, tert-butyl (3R,4R)-4-[4-[[5-amino-6-oxo-4-(3-pyridyloxy)pyrimidin-1-yl]methyl]-4-hydroxy-piperidine-1-carbonyl]-3-phenyl-piperidine-1-carboxylate], affinity was put at a Ki of 226 nM.
